We go through 1 molecule from US20100016256A1, “Taxane Compounds for Treating Eye Disease” (priority 2008, published 2010).

The structures appear in SMILES notation. Read-outs that look alike come from different tables or passages of the source.

Data set [1] concerns bFGF-stimulated formation of new blood vessel in the Matrigel plug. As to the kind of experiment: Matrigel plug perfusion in vivo assay. The note with it: mice, Matrigel and bFGF; for Matrigel Plug/Plasma Fluorescence Ratio: oral gavage. The procedure:
A Matrigel® plug perfusion in vivo assay is performed to determine the anti-angiogenic efficiacy of the cobalamin-paclitaxel bioconjugate (Cob-Pac) of Example 1. The assay uses Matrigel®, a gelatinous protein mixture secreted by mouse tumor cells (BD Biosciences, San Jose, Calif.), to duplicate tissue environments. Matrigel® is liquid at […], but when injected into the animal, forms a solid plug. If a growth vessel stimulant such as basic fibroblast growth factor (bFGF) is mixed with the Matrigel®, the bFGF stimulates the formation of new blood vessel in the plug, which can be monitored in the animal via fluorescence techniques. In the current study, Matrigel® is injected either alone or with bFGF subcutaneously into mice.

The conditions of data set [2]: paclitaxel conjugated to cobalt atom of cobalamin.
Data set [3] has as its system blood vessel lesions of the eye. The settings on record: rats. The text has this: In another study, flat mount evaluation of the eyes can be carried out at the end of the study because angiography may not provide a full evaluation of the effect of the drug. At the end of the study, the eyes are removed, histologically processed and all lesions can be seen (including those that can not be detected by angiography).
Groups of 8 rats/dosage group are neovascularized by laser burns, followed by immediate treatment of the eye with a cobalamin-paclitaxel bioconjugate prepared in accordance with Example 1. Dosages used are 1.5 μg/2 μL, 5.0 μg/2 μL, and 15 μg/2 μL. The treatments also include a vehicle and Kenacort Retard® (4% triamcinolone acetonide). After 21 days, the eyes are removed, histologically processed, and the lesion size scored in μm^3.

Data set [4] deals with choroidal neovascularization by laser burns on the eye. The note with it: rats. Here is the method:
Groups of 8 rats/dosage group or vehicle are neovascularized by laser burns on the eye. Afterwards, the eye is immediately treated with a cobalamin-paclitaxel bioconjugate prepared in accordance with Example 1 at a dose of 1.5 μg/2 μL, 5.0 μg/2 μL, and 15 μg/2 μL (indicated as B.C. in FIG. 1). The treatment regimen also includes a vehicle and Kenacort Retard® (4% triamcinolone acetonide), as a positive control. Each treatment is scored at 7, 14, and 21 days post-treatment by infusing the eye with fluorescein and scoring the leakage using angiography. A score of 0 indicates no leakage while a score of 3 indicates severe leakage. The results of the test are shown in FIG. 1 as the percentage of […] scoring 3.

In data set [5] the test system is viable circulating endothelial cell precursors (CEPs). The settings on record: mice; for Viable CEPs per microliter of peripheral blood: after 28 days. The procedure: (§1) A group of 6 mice are administered various dosages of the cobalamin-paclitaxel bioconjugate prepared in accordance with Example 1 over a 28-day period. The effects on counts of viable circulating endothelial cell precursors and white blood cells are measured after 28 days.

The test system of another data set is white blood cells. The note with it: mice; for White blood cells per 10^4 peripheral blood cells: after 28 days. Here is the method:
as §1

Setting [6] is: 1.5 mg/kg paclitaxel delivered as bioconjugate.
Where [7] appears, read: 2 mg/kg paclitaxel delivered as bioconjugate.
Setting [8] is: 3 mg/kg paclitaxel delivered as bioconjugate.
Where [9] appears, read: 6 mg/kg paclitaxel delivered as bioconjugate.
Where [10] appears, read: 30 mg/kg paclitaxel delivered as bioconjugate.

With `CC(=O)O[C@H]1C(=O)[C@@]2(C)C([C@H](OC(=O)c3ccccc3)[C@]3(O)C[C@H](OC(=O)[C@H](OC(=O)C[NH+](C)CC[CH2][Co+][N]4/C5=C(/C)C6=N/C(=C\C7=NC(=C(/C)C8=NC(C(C)C4C(CC(N)=O)C5(C)CCC(=O)NCC(C)OP(=O)([O-])OC4C(CO)OC(n5cnc9cc(C)c(C)cc95)C4O)C(C)(CC(N)=O)C8CCC(N)=O)/C(C)(CC(N)=O)C7CCC(N)=O)C(C)(C)C6CCC(N)=O)[C@@H](NC(=O)c4ccccc4)c4ccccc4)C(C)=C1C3(C)C)[C@]1(OC(C)=O)COC1C[C@@H]2O.[Cl-]` (stereo partly drawn) [cobalamin-paclitaxel bioconjugate, Cbl-(CH2)3N(CH3)CH2COO-2′-P7X], the “Effect on growth of new blood vessels in Matrigel plug” value in data set [1] (each dose (2, 6, 30 mg/kg), greatest effect at 2 and 6 mg/kg) is reported as “inhibits the growth of new blood vessels”. For the same molecule, the “Matrigel Plug/Plasma Fluorescence Ratio” value was found to be 0.0007 in data set [1] (2 mg/kg expressed in paclitaxel units), 0.0005 in data set [1] (6 mg/kg expressed in paclitaxel units) and 0.0011 in data set [1] (30 mg/kg expressed in paclitaxel units). Further, the water solubility result in data set [2] is on record as “over 100 mg/ml”. Besides, the “Number of blood vessel lesions (FIG. 2)” value in data set [3] (21 days, 1.5, 5.0 and 15 μg/2 μL) is “decrease in a concentration dependent manner”. For the same molecule, the “Inhibition of new blood vessel growth (lesion study)” value in data set [3] (21 days, high and medium concentrations (15 and 5.0 μg/2 μL)) is “efficacious in inhibiting new blood vessel growth”. Also, the “Anti-angiogenic effect by fluorescein leakage score (FIG. 1)” value in data set [4] (after 7 days, intermediate and high doses (5.0 and 15 μg/2 μL)) was “anti-angiogenic results”; in data set [4] (after 14 days, high dose (15 μg/2 μL)), “anti-angiogenic benefit”. Moreover, the “Viable CEPs per microliter of peripheral blood” value in data set [5] (setting [6]) is listed as 0.4 per microliter of peripheral blood; in data set [5] (setting [7]) it was 0.25 per microliter of peripheral blood; in data set [5] (setting [8]), 0.4 per microliter of peripheral blood; in data set [5] (setting [9]), 0.9 per microliter of peripheral blood; in data set [5] (setting [10]) it was 1.2 per microliter of peripheral blood. Also, in data set [5] (28-day dose study, dose as paclitaxel), the “Most effective dose (decrease in viable CEPs)” value was “about 2 mg/kg”. For the same molecule, the “White blood cells per 10^4 peripheral blood cells” value was 6700 per 10^4 peripheral blood cells in the data set on white blood cells (setting [6]); 6700 per 10^4 peripheral blood cells with white blood cells (setting [7]); 7000 per 10^4 peripheral blood cells in the data set with white blood cells (setting [8]); 6700 per 10^4 peripheral blood cells in the data set with white blood cells (setting [9]); 8100 per 10^4 peripheral blood cells with white blood cells (setting [10]). Besides, in the data set on white blood cells (28 days, absence of a decrease in white blood cell count), the “Toxicity by white blood cell count (neutropenia)” value is recorded as “no neutropenia”.
